In ChEMBL document CHEMBL1201862, “PubChem BioAssay data set” (2004):
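Grown in 96-well plates, cells were treated for 48 hours with each compound at five concentrations. Insufficient inhibition: endpoint recorded as highest concentration tested. GI50 = concentration required for 50% inhibition of growth.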 Active and inactive are the calls of the source. Cut-off read from the data, not from the text of the source: active = GI50 up to about 1.1 µM and inactive = higher.

How the values were obtained:
Assay in all cases: NCI tumour cell line growth inhibition, 48 h
[1] = test system: LOX IMVI
[2] = test system: OVCAR-5
[3] = test system: RXF 631
[4] = test system: NCI-H522
[5] = test system: SF-539
[6] = test system: HCT-15
[7] = test system: HL-60
[8] = test system: SK-MEL-2
[9] = test system: HOP-62
[10] = test system: SW-620
[11] = test system: OVCAR-8
[12] = test system: M19-MEL
[13] = test system: UACC-257
[14] = test system: COLO 205
[15] = test system: Malme-3M
[16] = test system: SF-295
[17] = test system: UO-31
[18] = test system: DMS-114
[19] = test system: HCC 2998
[20] = test system: LXFL 529
[21] = test system: M14
[22] = test system: NCI-H226
[23] = test system: SNB-19
[24] = test system: HCT-116
[25] = test system: K562
[26] = test system: KM12
[27] = test system: MOLT-4
[28] = test system: A549
[29] = test system: CCRF-CEM
[30] = test system: SNB-78
[31] = test system: KM-20L2
[32] = test system: EKVX
[33] = test system: A498
[34] = test system: CAKI-1
[35] = test system: SN12C
[36] = test system: ACHN
[37] = test system: SNB-75
[38] = test system: XF498
[39] = test system: SF-268
[40] = test system: SK-OV-3
[41] = test system: HT-29
[42] = test system: UACC-62
[43] = test system: SK-MEL-28
[44] = test system: RPMI-8226
[45] = test system: DLD-1
[46] = test system: OVCAR-3
[47] = test system: HOP-18
[48] = test system: NCI-H460
[49] = test system: SK-MEL-5
[50] = test system: U-251
[51] = test system: NCI-H23
[52] = test system: 786-0
[53] = test system: HOP-92
[54] = test system: RXF 393
[55] = test system: IGROV-1
[56] = test system: TK-10
[57] = test system: SR
[58] = test system: DMS-273
[59] = test system: OVCAR-4

For `CCNC(=O)N(CC)CN(CC)C(=O)NCC`, the GI50 [1] was > 100 µM (inactive), the GI50 [2] was > 100 µM (inactive) and the GI50 [3] was > 100 µM (inactive). The GI50 [4] was > 100 µM (inactive), the GI50 [5] was > 100 µM (inactive) and the GI50 [6] was greater than 100 µM. The GI50 [7] was > 100 µM (inactive), the GI50 [8] was > 100 µM (inactive) and the GI50 [9] was > 100 µM (inactive). For the same compound, the GI50 [10] was > 100 µM (inactive), the GI50 [11] was > 100 µM (inactive) and the GI50 [12] was > 100 µM (inactive). For the same compound, the GI50 [13] was > 100 µM (inactive), the GI50 [14] was > 100 µM (inactive) and the GI50 [15] was > 100 µM (inactive). The GI50 [16] was > 100 µM (inactive), the GI50 [17] was > 100 µM (inactive) and the GI50 [18] was > 100 µM (inactive). The GI50 [19] was > 100 µM (inactive), the GI50 [20] was > 100 µM (inactive) and the GI50 [21] was > 100 µM (inactive). For the same compound, the GI50 [22] was > 100 µM (inactive), the GI50 [23] was > 100 µM (inactive) and the GI50 [24] was > 100 µM (inactive). The GI50 [25] was > 100 µM (inactive), the GI50 [26] was > 100 µM (inactive) and the GI50 [27] was > 100 µM (inactive). For the same compound, the GI50 [28] was > 100 µM (inactive), the GI50 [29] was > 100 µM (inactive) and the GI50 [30] was > 100 µM (inactive). For the same compound, the GI50 [31] was > 100 µM (inactive), the GI50 [32] was > 100 µM (inactive) and the GI50 [33] was > 100 µM (inactive). For the same compound, the GI50 [34] was > 100 µM (inactive), the GI50 [35] was > 100 µM (inactive) and the GI50 [36] was > 100 µM (inactive). The GI50 [37] was > 100 µM (inactive), the GI50 [38] was > 100 µM (inactive) and the GI50 [39] was > 100 µM (inactive). For the same compound, the GI50 [40] was > 100 µM (inactive), the GI50 [41] was > 100 µM (inactive) and the GI50 [42] was > 100 µM (inactive). For the same compound, the GI50 [43] was > 100 µM (inactive), the GI50 [44] was > 100 µM (inactive) and the GI50 [45] was > 100 µM (inactive). For the same compound, the GI50 [46] was > 100 µM (inactive).

With `C/C=C1/C=CC2c3[nH]c4ccccc4c3CCN2C1` (stereo not given) the GI50 [1] was > 400 µM (inactive), the GI50 [3] was > 400 µM (inactive) and the GI50 [47] was 7.11 µM (inactive). The GI50 [48] was > 400 µM (inactive), the GI50 [4] was 195 µM (inactive) and the GI50 [5] was > 400 µM (inactive). The GI50 [6] was greater than 400 µM, the GI50 [49] was 138 µM (inactive) and the GI50 [50] was > 400 µM (inactive). The GI50 [51] was > 400 µM (inactive), the GI50 [52] was > 400 µM (inactive) and the GI50 [7] was > 400 µM (inactive). The GI50 [8] was > 400 µM (inactive), the GI50 [9] was > 400 µM (inactive) and the GI50 [10] was > 400 µM (inactive). The GI50 [11] was > 400 µM (inactive), the GI50 [12] was > 400 µM (inactive) and the GI50 [13] was 243 µM (inactive). For the same compound, the GI50 [14] was > 400 µM (inactive), the GI50 [15] was > 400 µM (inactive) and the GI50 [16] was 315 µM (inactive). The GI50 [18] was 296 µM (inactive), the GI50 [19] was > 400 µM (inactive) and the GI50 [20] was > 400 µM (inactive). The GI50 [53] was 199 µM (inactive), the GI50 [54] was > 400 µM (inactive) and the GI50 [22] was 358 µM (inactive). For the same compound, the GI50 [23] was 187 µM (inactive), the GI50 [55] was > 400 µM (inactive) and the GI50 [24] was 223 µM (inactive). For the same compound, the GI50 [56] was > 400 µM (inactive), the GI50 [25] was > 400 µM (inactive) and the GI50 [26] was > 400 µM (inactive). The GI50 [27] was > 400 µM (inactive), the GI50 [28] was > 400 µM (inactive) and the GI50 [29] was > 400 µM (inactive). For the same compound, the GI50 [31] was > 400 µM (inactive), the GI50 [32] was > 400 µM (inactive) and the GI50 [34] was > 400 µM (inactive). The GI50 [35] was > 400 µM (inactive), the GI50 [36] was > 400 µM (inactive) and the GI50 [38] was > 400 µM (inactive). For the same compound, the GI50 [57] was 331 µM (inactive), the GI50 [39] was > 400 µM (inactive) and the GI50 [40] was > 400 µM (inactive). For the same compound, the GI50 [41] was > 400 µM (inactive), the GI50 [42] was > 400 µM (inactive) and the GI50 [43] was > 400 µM (inactive). For the same compound, the GI50 [44] was > 400 µM (inactive), the GI50 [45] was > 400 µM (inactive) and the GI50 [46] was 116 µM (inactive). For the same compound, the GI50 [58] was > 400 µM (inactive).

With `CC(=O)/C(=C\c1ccccc1)C(=O)Nc1ccccc1` the GI50 [1] was > 100 µM (inactive), the GI50 [2] was > 100 µM (inactive) and the GI50 [3] was > 100 µM (inactive). For the same compound, the GI50 [47] was > 100 µM (inactive), the GI50 [48] was > 100 µM (inactive) and the GI50 [4] was > 100 µM (inactive). The GI50 [5] was > 100 µM (inactive), the GI50 [49] was > 100 µM (inactive) and the GI50 [50] was > 100 µM (inactive). The GI50 [51] was > 100 µM (inactive), the GI50 [52] was > 100 µM (inactive) and the GI50 [7] was > 100 µM (inactive). The GI50 [8] was > 100 µM (inactive), the GI50 [9] was > 100 µM (inactive) and the GI50 [10] was > 100 µM (inactive). For the same compound, the GI50 [11] was > 100 µM (inactive), the GI50 [12] was > 100 µM (inactive) and the GI50 [13] was > 100 µM (inactive). The GI50 [15] was > 100 µM (inactive), the GI50 [16] was 44.1 µM (inactive) and the GI50 [17] was > 100 µM (inactive). The GI50 [18] was > 100 µM (inactive), the GI50 [19] was > 100 µM (inactive) and the GI50 [20] was > 100 µM (inactive). For the same compound, the GI50 [21] was > 100 µM (inactive), the GI50 [53] was > 100 µM (inactive) and the GI50 [54] was > 100 µM (inactive). The GI50 [22] was > 100 µM (inactive), the GI50 [23] was > 100 µM (inactive) and the GI50 [55] was > 100 µM (inactive). The GI50 [24] was > 100 µM (inactive), the GI50 [56] was > 100 µM (inactive) and the GI50 [25] was > 100 µM (inactive). The GI50 [26] was > 100 µM (inactive), the GI50 [27] was > 100 µM (inactive) and the GI50 [28] was > 100 µM (inactive). The GI50 [29] was > 100 µM (inactive), the GI50 [30] was > 100 µM (inactive) and the GI50 [32] was > 100 µM (inactive). For the same compound, the GI50 [34] was > 100 µM (inactive), the GI50 [35] was > 100 µM (inactive) and the GI50 [36] was > 100 µM (inactive). The GI50 [59] was > 100 µM (inactive), the GI50 [38] was > 100 µM (inactive) and the GI50 [57] was > 100 µM (inactive). For the same compound, the GI50 [39] was > 100 µM (inactive), the GI50 [40] was > 100 µM (inactive) and the GI50 [41] was > 100 µM (inactive). The GI50 [42] was > 100 µM (inactive), the GI50 [44] was > 100 µM (inactive) and the GI50 [45] was > 100 µM (inactive). For the same compound, the GI50 [46] was > 100 µM (inactive).
